In US5705649A, “Protein staining compositions and methods” (Promega Corporation, priority 1995, dated 1998):

Columns and labels:
[1] = test system: Promega Mid-Range Molecular Weight Standards; experiment: Post-electrophoretic detection of protein using NBODY derivatives; settings: crude dye solution in 5% acetic acid, 20% ethanol, one hour
Description: Promega Mid-Range Molecular Weight Standards were diluted and heated as described in Example 27 to produce solutions containing 125, 25, 5 and 1 ng of protein per band in 10 microliters of solution. A 10% Tris Glycine, precast polyacrylamid gel from Novex Corp. (San Diego, Calif., USA, Cat. No. EC 6075.) was loaded with 10 microliters of the just described, diluted molecular weight standard solutions in lanes so that two lanes, each with the same diluted standard solution, were separated by a blank lane. The gel was developed using conditions recommended by the manufacturer and following development, the gel was cut in the blank lane. The segments were placed in 50 ml of 5% acetic acid, 20% ethanol. Six hundred microliters of the NBODY-C12 reaction mixture from Example 40 was added to the solution with one of the segments of a pair (of lanes with the same protein molecular weight standard solution) and three hundred microliters of the NBODY-C16 reaction mixture from Example 40 was added to the solution with the other segment of the same pair. After one hour of incubation, the gel segments were photographed on a transilluminator as described in example 27. Protein bands were detected in the lanes containing the 125 and 25 ng of protein per band using this method and the crude dye solutions from Example 40.

[2] = test system: Promega Mid Range Molecular Weight Standards; experiment: Post-electrophoretic staining of gels with octyl and dodecyl derivatives of MDPF
Description: A fifteen well, 12% gel was made as described in example 5 and was loaded with diluted Promega Mid Range Molecular Weight Standards to produce lanes containing samples having 200, 100, 80, 60, 40, 20 and 10 ng of protein per band. The gel was run as described in example 5 except that Promega Green 1 was not added to the cathode buffer. After electrophoresis, the gel was cut between lanes to produce gel segments containing fractionated protein samples at each of the concentrations listed above and these were placed in 30% methanol for 25-30 min at room temperature. The stock stain solutions of Example 33 were then diluted into distilled water at a concentration of 0.5% (v/v), and 50 ml of these solutions were used to stain the gels. After 1 hr incubation, the gels were visualized and photographed using a transilluminator. […] The gels were then placed in 5% methanol and allowed to destain overnight.
After overnight destaining, the gel segments were again placed upon a transilluminator, visualized and photographed. […] Nonetheless, these derivatives can be used for sensitive post-electrophoretic staining of proteins in gels.

carbonic anhydrase = experiment: In-gel staining with octyl and dodecyl derivatives of MDPF; settings: 31 kdalton standard; stain stock in cathode buffer and wells
Description: (§1) Two 10-well, 12% gels were made as described in Example 5 and were loaded with diluted Promega Mid Range Molecular Weight Standards to produce lanes containing 200, 100, 80, 60, 40, 20, 10, and 5 ng of protein per band following fractionation by electrophoresis. These protein levels were applied to the gels in 10 μl of loading buffer described in Example 5 and then 10 μl of a 1:100 dilution of the derivative stock solution (Example 33) into a solution of 20% glycerol, 1% sodium dodecyl sulfate was added to the wells. The gels were then run as described in Example 5 except that 0.5 ml of derivative stain stock was added to the cathode buffer in the gel and the Promega Green 1 dye was omitted from the solution. The gels were placed on a transilluminator following electrophoresis and were observed visually and photographed as described above. Staining of the protein bands was seen down to 80 ng of protein per band for the dodecyl derivative for all proteins and, for the 31 kdalton standard (carbonic anhydrase) down to 60 ng/band. Staining of the bands was seen to 60 ng/band for all proteins with the octyl derivative, with the carbonic anhydrase being detectable down to 40 ng per band. Therefore both stains can be used for in-gel staining of proteins.

[3] = test system: Promega Mid Range Molecular Weight Standards; experiment: as above; settings: stain stock in cathode buffer and wells
Description: as §1

[4] = test system: Promega Mid Range Molecular Weight standard; experiment: Optimization of staining with dodecyl dansyl stain, acetic acid/ethanol fixing and staining
Description: Two 12% SDS-PAGE gels were run with diluted Promega Mid Range Molecular Weight standard to produce samples of proteins at 20, 10, and 5 ng of protein per band present in the gels. The gels were made as in Example 27 and proteins were fractionated on the gels in a BioRad Miniprotean II gel system as recommended by the manufacturer. The gels were cut to produce segments of gel containing three lanes of samples containing one lane each of the protein concentrations described above and placed for 15 min in 50 ml of one of the following fixative solutions: 30% ethanol, 20% acetic acid; 40% ethanol, 10% acetic acid; 40% ethanol, 20% acetic acid; 50% ethanol, 10% acetic acid; and 50% ethanol, 20% acetic acid. After the 15 min incubation, the gels were transferred into another 50 ml of the same fixative solution containing 50 μl of dodecyl dansyl stain solution (in 50 ml ethanol, Example 28). After 3 hrs., the segments were placed in 50 ml of 50 mM Tris-Cl, pH8.0, for 5 min and then were visualized on a transilluminator and photographed.
After visualization, the segments were returned to their respective staining solutions and allowed to incubate overnight. The following morning, the segments were visualized and photographed directly on a transilluminator without prior incubation in a different solution.

[5] = test system: Promega Mid-Range Molecular Weight Standards; experiment: Optimization of post-electrophoretic staining with dodecyl dansyl stain
Description: In order to determine if alternative staining conditions would improve the detection of protein by fluorescent staining with the dodecyl dansyl stain, the following experiment was performed. Two 12% SDS-PAGE minigels from Bio-Rad Corporation were used to fractionate samples of diluted Promega Mid-Range Molecular Weight Standards which were loaded into alternate lanes of the gel to produce protein bands containing 25 and 5 ng of each protein per band in adjacent lanes. The gels were run as recommended by the manufacturer in Bio-Rad Miniprotean II electrophoresis units and sliced to produce two lane segments containing one lane each of the 25 and 5 ng sample lanes. One slice was placed in each of the following solutions (50 ml) followed by incubation of the segment in a second 50 ml of the solution containing 200 μl of dodecyl dansyl derivative solution (in 50 ml ethanol) of Example 28: distilled water; 1% acetic acid; 1% trichloroacetic acid; 5M sodium chloride; 0.5M Tris base; 0.5M ammonium bicarbonate, pH 5.0; 2M Tris pH8.0; 0.05M sodium hydroxide; and 10% ethanol. The gels were allowed to stain overnight at room temperature and then were observed on a transilluminator to allow visualization and photography of the fluorescently stained bands as described in Example 27. […] It was thought that this is due to an inability of the particular stain derivative used to fluoresce under the highly acidic condition produced in the trichloroacetic acid solution.
In order to determine if the stain remained intact in these solutions and to standardize the conditions for the stains, the gel segments were then incubated in 50 ml of distilled water. After 1 hr, the segments were re-observed and re-photographed. […] Thus, staining sensitivity is dependent upon staining conditions and mildly acidic conditions appear to improve the sensitivity of staining.

[6] = test system: Promega Mid-Range Molecular Weight Markers; experiment: In-gel staining with dodecyl dansyl stain; settings: 0.1% (v/v) stain in cathode buffer
Description: In order to determine if in-gel staining with dodecyl dansyl stain could be performed, a gel containing the concentrations of reagents in the gel buffers and running buffers listed in Example 5 was made and run as described in Example 5 with two exceptions: 1) dodecyl dansyl stain (in 50 ml ethanol, Example 28) was added to the cathode buffer at 0.1% (v/v) instead of Promega Green 1; 2) Promega Mid-Range Molecular Weight markers were diluted into 1× loading buffer as described in Example 5 and were loaded on the gel to produce lanes containing each protein at concentrations from 1000 ng/lane to 3.1 ng/lane. Following electrophoresis, the gel was placed directly on a transilluminator and visualized and photographed as described above. […] Thus, staining while the gel is running can be performed with the dodecyl dansyl stain and is particularly favorable for protein species with low mobilities.

[7] = test system: Promega Mid Range Molecular Weight Standards; experiment: Post-electrophoretic detection of protein with purified dansyl derivatives
Description: Samples of the eluates from purification of the derivatives were diluted 20-fold with ethanol and the absorption of the resulting solutions from 400 to 220 nm was measured. The absorption of the solutions at 328 nm was used as an indication of the concentration of the derivative in the staining studies in Example 27.
Several SDS-PAGE minigels were made as described in Experiments with Gene Fusions, Silhavy, Berman, Enquist, supra, using the SDS concentrations described by the authors. Samples of Promega Mid Range Molecular Weight Standards were diluted into the loading solution described in the reference above to produce solutions containing 200, 100, 50, 25, and 12.5 ng of each protein species in 10 μl of solution. These solutions were loaded onto the gels and the samples were fractionated in the gels by application of 10 mA per gel until the tracking dye for the samples reached the bottom of the gel. The gels were then rinsed 1 min in distilled water, 15 min in 10% trichloracetic acid (w/v), and then for 15 min in 10% methanol (v/v). The gel segments, approximately 5×6 cm containing the fractionated standard, were then transferred to a 2% ethanol solution (50 ml) containing 0.05 OD328 -equivalent of each of the dansyl derivatives (see Example 26).
The gel segments were returned to their respective staining solutions and were incubated overnight. The following morning, all of the gel segments were again visualized on the transilluminator and photographed as described above. […] In general, relatively equivalent staining of bands was obtained as determined by the strength of the fluorescent signal observed for the various fractionated species.

[8] = test system: Promega Mid Range Molecular Weight Standards; experiment: Detection of fractionated protein in SDS-PAGE gels using dansyl derivatives made in acetone
Description: Several 15-well, SDS-PAGE minigels were poured as described in Example 27 and loaded with Promega Mid Range Molecular Weight Standards diluted as described in Example 27 to provide samples containing 1000, 300, 100, 50, 25, 12.5, and 6.25ng of each protein per band in separate lanes of the gel. The samples were fractionated by application of 20 mA per gel until the tracking dye reached the bottom of the gel. All the gels were placed in 10% trichloroacetic acid for 5 min and then incubated for 10 min in 10% (v/v) methanol. The gels were then incubated in a 10% methanol solution containing 2% (v/v) of the derivative eluates (dissolved in 50 ml ethanol) described in Example 28. The gels were transferred to a transilluminator and both visualized and photographed after two hours of staining. The following observations were made. Only the lanes containing 1000 and 300ng of protein per band were visible in the gel incubated with the n-butyl dansyl derivative. The lanes containing the 1000, 300, 100, 50, 25ng per band were visible in the gel incubated with the n-hexyl derivative as were some of the bands in the 12.5 ng per band lane.
After overnight incubation in the stain solutions, the gels were re-observed and rephotographed.
The gels were then placed in 1% acetic acid to remove any unbound stain and rephotographed after three hours of incubation in this solution at room temperature.

[9] = after overnight destaining in 5% methanol

SMILES: CCCCCCCCCCCCCCCCNC(=O)CCCCCNc1ccc([N+](=O)[O-])c2nonc12 [NBODY-C16]
- lowest protein per band detected [1]: 25 ng

SMILES: CCCCCCCCCCCCN=C1C(c2ccccc2)=COC1(OC)c1ccccc1 (stereo not drawn) [dodecyl MDPF derivative]
- lowest protein per band stained [2, 9]: 20 ng
- lowest carbonic anhydrase per band stained (carbonic anhydrase): 60 ng
- lowest protein per band stained, all proteins [3]: 80 ng

SMILES: CCCCCCCCCCCCNS(=O)(=O)c1cccc2c(N(C)C)cccc12 [dodecyl dansyl derivative]
- visibility of protein bands ([4]; 3 hrs, 30 or 40% ethanol and 10 or 20% acetic acid, 20, 10, 5 ng per band): faintly visible
- level of protein per band detected ([4]; overnight staining in ethanol/acetic acid): ≤ 5 ng
- staining ([5]; all other staining solutions, overnight): No other staining solution allowed visualization of the fractionated protein species at this point
- protein per band displayed as fluorescent bands ([5]; stain in 0.5M ammonium bicarbonate, pH 5.0, overnight): 25 ng
- protein per band displayed as fluorescent bands ([5]; stain in 1% acetic acid, overnight): 25 ng
- staining ([5]; stain in 1% trichloroacetic acid, overnight): neither protein detection nor background staining
- staining ([5]; stain in 2M Tris pH 8.0, overnight): much weaker staining
- staining after distilled water ([5]; stained in 0.5M ammonium bicarbonate, pH 5.0, then 1 hr water): Staining was seen
- staining after distilled water ([5]; stained in 1% acetic acid, then 1 hr water): greater fluorescence
- staining after distilled water ([5]; stained in 1% trichloroacetic acid, then 1 hr water): greater fluorescence
- staining after distilled water ([5]; stained in 2M Tris pH 8.0, then 1 hr water): Staining was seen
- detection of protein species migrating more than halfway through the gel [6]: not easily detected
- lowest protein per band seen (many of the heavier molecular weight species) [6]: 12.5 ng
- staining quality compared to the amino or butyl derivatives [7]: much better stains compared to the amino or butyl derivatives
- lowest protein amount with visible bands (several of the bands) ([7]; 15 min staining): 100 ng
- visibility of protein bands ([7]; overnight staining): easily visible
- lowest protein per band visible ([8]; 2% (v/v) eluate in 10% methanol, two hours of staining): 300 ng
- protein per band at which most of the protein species were visible ([8]; after 1% acetic acid, three hours): 6.25 ng
- protein per band at which at least some of the bands could be visualized ([8]; overnight staining): 12.5 ng

SMILES: CCCCCCCCN=C1C(c2ccccc2)=COC1(OC)c1ccccc1 (stereo not drawn) [octyl MDPF derivative]
- lowest protein per band stained (most of the species) ([2]; 0.5% (v/v) stain in water, 1 hr): 20 ng
- retention of fluorescent staining [2, 9]: almost all of the fluorescent staining of the octyl MDPF derivative stained gel had been lost
- lowest carbonic anhydrase per band stained (carbonic anhydrase): 40 ng
- lowest protein per band stained, all proteins [3]: 60 ng
